US11504349B2, “Composition for preventing or treating TNF-related diseases, containing novel derivative as active ingredient, and method for inhibiting TNF activity by using same” (ILAB, priority 2017, dated 2022)

How the values were obtained:
etanercept = etanercept (Homo sapiens, UniProt P20333); assay: SPR binding to etanercept; conditions: FIG. 2c
TNF = TNF (Homo sapiens, UniProt P01375); assay: SPR (Biacore T200) direct binding to immobilized TNF; conditions: TNF immobilized on CM5 chip, read-out: binding affinity (KD)
Protocol: The binding kinetics of TNF and 4-benzopyranone derivative compounds was measured by Surface Plasmon Resonance (SPR) method. First, based on the results of pH scouting (10 mM acetate buffer, pH 4.0, 4.5, 5.0, and 5.5), the appropriate buffer pH was determined, and then the recombinant TNF was immobilized on the CM5 chip (4000-5000 RU). In order to correct an effect of DMSO, a solvent correction standard was then prepared, and DMSO was added to the HBS-EP+ buffer (GE) in an amount of 5%. Then, the 4-benzopyranone derivative compounds were prepared depending on concentration, flowed into the chip (20 μl/min, 500 s), and dissolved (500 s), and the results of sensorgram were analyzed by a dedicated program to determine the affinity value (KD). At this time, the running buffer was HBS-EP+ buffer (GE), the regeneration buffer was 10 mM glycine (pH 2.5), and Biacore T200 (GE) was used as an analyzer.

DBA/1 mice [1] = assay: Therapeutic effect on rheumatoid arthritis, CIA mouse model; type: in vivo
Protocol: The CIA mouse model is a model in which arthritis is induced by collagen in DBA/1 mice. Thus, a 1:1 mixture of collagen type 2 and CFA was intradermally (ID) injected into the base of the tail of 8-week old DBA/1 mice. Two weeks after the primary immunization, a 1:1 mixture of collagen type 2 and IFA was intradermally (ID) injected into the base of the tail. After the second immunization, the pathology was measured twice a week, and the groups were divided equally so that the mean of the pathology of each group was 4 points. From Day 35 after the primary immunization, etanercept (4.5 mpk), adalimumab (1.2 mpk), the compound of Example 61 (25 mpk, 50 mpk, or 100 mpk) were orally administered three times a week, and the pathology was measured and recorded. The pathology score was measured as 1=inflammation and swelling of one toe, 2=inflammation of one or more toes or weak swelling of the whole sole of the foot, 3=severe swelling of the whole sole of the foot and swelling of ankle, 4=very severe inflammation and swelling of the whole foot or the bending and stiffness of foot (N=7 to 9/group, *P<0.01, **P<0.005, ***P<0.001).

BALB/c mice = assay: In vivo TNF neutralization assay (TNF/D-galactosamine-induced lethality); set-up: species or system mouse; conditions: 3.3, 16.5 mpk PO 30 minutes before challenge; 24 hours; concentration-dependent
Protocol: Treatment with TNF and a sensitizer D-galactosamine in an in vivo mouse model leads to death from acute liver failure. Thus, the compound of Example 61 (3.3 mpk or 16.5 mpk) was orally administered to BALB/c mice, and after 30 minutes, the mice were IP treated with the mixture of D-galactosamine (21 mg/mouse) and TNF (0.3 μg/mouse). Survival rates were observed and recorded every 3 hours up to 24 hours, and statistically analyzed by log-rank (Mantel-Cox) test using Prism 6 (GraphPad) (N=13/group, **P<0.005, ***P<0.001). mpk, mg/kg). This confirmed that the in vivo neutralization activity of the compounds binding to TNF in a TNF-induced lethality model.

DBA/1 mice [2] = assay: CIA mouse model, alone and in combination with methotrexate; type: in vivo; conditions: Example 61 10 mpk PO once a day, MTX 5 mpk three times a week, to Day 73
Source text: A 1:1 mixture of collagen type 2 and CFA was intradermally (ID) injected into the base of the tail of DBA/1 mice. Two weeks after the primary immunization, a 1:1 mixture of bovine collagen type 2 and IFA (incomplete Freund's adjuvant) was intradermally (ID) injected into the base of the tail to prepare the rheumatoid arthritis animal model. The thus prepared mice were divided into […], i.e., a positive control group (MTX 5 mpk treated group: 10 mice), a group treated with the compound of Example 61 alone (10 mpk treated group: 9 mice), a group treated with MTX and the compound of Example 61 (each 5 mpk and 10 mpk; 9 mice), and a group treated with vehicle (a group treated with 0.05% CMC diluted in distilled water; 15 mice). […]
The severity of arthritis was determined by ascertaining the mean score of arthritis according to the following standard score in the forefoot and hindfoot twice a week from Day 0 to Day 73 after the primary immunization: 0=normal foot, 1=inflammation and swelling of one toe, 2=inflammation and swelling of more than one toe, but not all of the toes have inflammation and swelling, or weak swelling of all toes, 3=inflammation and swelling of all toes, and 4=severe inflammation and swelling or occlusion of foot.

TNF-etanercept binding = TNF-etanercept binding (Homo sapiens, UniProt P01375); assay: SPR competition: inhibition of TNF-etanercept binding; conditions: etanercept alone vs with compound, FIG. 2e
Protocol: The competition of binding of TNF-inhibiting biopharmaceutical etanercept and the derivative compounds to TNF was measured by SPR assay. Based on the results of pH scouting (10 mM acetate buffer, pH 4.0, 4.5, 5.0, and 5.5), the appropriate buffer pH was determined, and then the recombinant TNF was immobilized on the CM5 chip (4000-5000 RU). In order to correct an effect of DMSO, a solvent correction standard was then prepared, and DMSO was added to the PBST buffer (1×PBS, pH 7.4, 0.05% Tween 20, 0.01% Triton X-100, 5% DMSO) in an amount of 5%. Then, Etanercept alone or in combination with the compounds was flowed into the chip (20 μl/min, 300 s) and dissolved (700 s), and the results of sensorgram were analyzed by a dedicated program. […] At this time, the running buffer was PBST buffer, the regeneration buffer was 10 mM glycine (pH 2.5), and the instrument was Biacore T200 (GE).

biotinylated TNF = target: T1, biotinylated TNF (Homo sapiens, UniProt P01375); assay: Flow cytometry: binding of biotinylated TNF to Raw 264.7 cells; type: cell-based, mouse; conditions: compound 800, 200, 5 μM, FACS, FIG. 3a
T1 construct: purchased R&D Systems NFTAO
Protocol: First, macrophage Raw 264.7 cells were prepared (4×10^6 cells/ml), and the biotinylated TNF alone or in combination with the 4-benzopyranone derivative compound (800, 200, 5 μM) was added to the cells and reacted (30 min, 4° C.). 10 μl of avidin-FITC reagent was then added and reacted in the dark (30 min, 4° C.). After washing with RDF1 buffer, FACS analysis was carried out (BD Canto). Human TNF-alpha Biotinylated Fluorokine Flow Cytometry Kit (Cat #: NFTAO) of R&D Systems was used in the experiment.

Sequence of etanercept (P20333 with tags, fused parts or gaps limits assumed): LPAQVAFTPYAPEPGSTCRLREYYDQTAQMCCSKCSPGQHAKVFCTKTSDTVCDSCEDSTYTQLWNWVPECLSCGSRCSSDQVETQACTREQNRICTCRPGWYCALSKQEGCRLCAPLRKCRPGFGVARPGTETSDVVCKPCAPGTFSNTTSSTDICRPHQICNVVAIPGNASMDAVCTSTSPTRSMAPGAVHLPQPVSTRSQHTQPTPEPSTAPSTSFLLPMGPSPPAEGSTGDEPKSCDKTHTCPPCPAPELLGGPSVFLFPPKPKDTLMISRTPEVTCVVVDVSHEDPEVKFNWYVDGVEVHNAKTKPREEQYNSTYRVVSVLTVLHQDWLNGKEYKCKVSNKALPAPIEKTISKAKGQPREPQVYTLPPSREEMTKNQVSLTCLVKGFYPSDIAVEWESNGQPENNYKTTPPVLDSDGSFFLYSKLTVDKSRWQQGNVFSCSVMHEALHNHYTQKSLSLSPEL
Sequence of TNF (P01375 77-233 limits assumed): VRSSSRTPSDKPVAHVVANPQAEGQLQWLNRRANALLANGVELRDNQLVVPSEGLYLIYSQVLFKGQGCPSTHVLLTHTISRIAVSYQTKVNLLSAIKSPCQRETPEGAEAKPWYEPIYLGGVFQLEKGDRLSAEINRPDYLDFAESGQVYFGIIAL
Sequence of TNF-etanercept binding (P01375 77-233 limits assumed): as above
T1 sequence (P01375 77-233 limits assumed): as above

## O=C(O)c1c(-c2cc(F)ccc2F)oc2cc(Cl)ccc2c1=O [Example 61, 2-(2,5-difluorophenyl)-3-carboxy-7-chloro-(4H)-4-benzopyranone]
etanercept
  binding to etanercept: did not bind to etanercept
TNF
  Kd: 1440 nM
DBA/1 mice [1]; 25, 50 and 100 mpk PO three times a week, vs negative control
  therapeutic effect on rheumatoid arthritis (pathology score): remarkable therapeutic effect
DBA/1 mice [1]; 25 mpk
  effect in comparison with etanercept: non-inferior effect
  efficacy in comparison with tofacitinib (25 mpk): considerably similar efficacy
BALB/c mice
  death of mice due to acute hepatotoxicity induced by D-galactosamine and TNF: inhibited
DBA/1 mice [2]
  therapeutic effect on arthritis (mean arthritis score): therapeutic effect on arthritis was shown
TNF-etanercept binding
  inhibition of TNF-etanercept binding: significantly inhibited the TNF-etanercept binding
Biotinylated TNF
  inhibitory activity against TNF-cell binding: decreased the target cell binding of TNF to the basal level in a concentration-dependent manner
